Values of other authors as cited in patent publication EP4732851A9, “LINKER, ANTIBODY-DRUG CONJUGATE, AND PREPARATION METHOD THEREFOR” (Fudan University, priority 2024, dated 2025).

Conditions: background statement; cited from earlier work

In the case of PNU-159682, the “activity compared to MMDX and doxorubicin” value is given as 3000 fold.
